The values below come from PMC12274739, “Differential substrate degradation by super-degron: EGFP in wild-type mouse cells, PD-1 requires CRBN humanization” (iScience, 2025).

Several values for one entry are separate records, joined by “and”; a condition that tells them apart may be missing. Identical values can stand only once. Like-named read-outs stand apart in the source and are kept apart here.

The target of experiment [1] is endogenous PD-1 tagged with SD (Mus musculus, UniProt Q02242+Q8C7D2). In words: Endogenous PD-1-SD on concanavalin A-stimulated spleen T cells, flow cytometry. It is filed as cell-based. Conditions: for percentage of activated T cells characterized by FSC high: Con A-stimulated splenocytes; for PD-1 on CD8+ and CD4+ cells: Con A, 24 h after 1 μM POM or 0.1–1 μM IBR. How it is done:
(§1) The dotted lines show an isotype control without IBR. […] The dotted lines show an isotype control without IBR. […] The black lines show isotype control without IBR. […] Red lines show the boundary between positive and negative. […] (B–J) IBR or solvent (−) was added to cultured splenocytes (B–G) or mESCs (H–J). […] The concentration is 0.1 μM in the rightmost bar in each group, and the left neighbor is a step dilution of one-tenth. Intensities of anti-PD-1-FITC on CD4^+ and CD8^+ T cells were measured by flow cytometry, and the geometric means of fluorescence intensities (MFI) were calculated. The MFI of the isotype control of anti-PD-1-FITC was subtracted from each MFI of anti-PD-1-FITC. The dots indicate the results of the experiment for each of the three samples from different individuals.
Pdcd1^SD/SD/Crbn^I391V/I391V spleen-derived T cells were stimulated in vitro with concanavalin A (Con A) followed by treatment with thalidomide analogs to examine PD-1 expression (Figures 6B–6D and S6A–S6C).
(§2) To determine whether the same phenomenon occurs in non-T cells, exogenous PD-1 degradation was examined in mESCs transfected with PD-1-SD expression vectors (Figures 6H–6J and S6E). […] We hypothesized that the degradation efficiency of membrane-localized proteins might be reduced in mouse-type CRBNs. Therefore, we expressed EGFP-SDs with membrane-localized peptides attached to their N-termini in mESCs and added IBR. The degradation efficiency of EGFP-SD with membrane-localization peptide[32] […] Therefore, Pdcd1^SD/SD/Crbn^I391V/I391V mice were used for further analyses.
Splenocytes were harvested after the mice were euthanized. Splenocytes were isolated in RPMI 1640 medium and collected using a 70 μm filter. After treatment with ACT solution to remove red blood cells, splenocyte culture was performed at a density of 2 × 10^6 cells/mL in RPMI 1640 with 10% FBS, Glutamax and penicillin-streptomycin and incubated at 37°C in a 5% CO2 containing atmosphere. To activate T cells, 0.5 μg/mL concanavalin A was added to the medium for 3 days to activate T cells.
For orientation: In flow cytometry, cells or beads pass a laser one at a time.

In experiment [2] the target is PD-1 tagged with SD in the brain (Mus musculus, UniProt Q02242+Q8C7D2). In words: PD-1 expression in brain, western blotting. Conditions: Pdcd1SD/SD/CrbnI391V/I391V mice. It is filed as in vivo. The method, then:
Although the growth of GL-261 in the brain was inhibited, it is likely that the BBB was destroyed in cancer growth experiments in which GL-261 was transplanted.[34] Therefore, we conducted an experiment in which IBR was administered without the transplantation of brain tumor cell lines as a model for protein degradation experiments in the brain under normal conditions. […] Thus, this degron system can be used in the brain.
Brain tissue was collected after the mice were deeply anesthetized and perfused with PBS to remove blood. They were immediately frozen in liquid nitrogen and homogenized in Nervous Tissue Protein Extraction buffer (TCI, Tokyo, Japan). After centrifuging the lysate at 20,000 g for 10 min at 4°C, heated at 98°C for 3 min with NuPAGE Sample Reducing Agent (Thermo Fisher Scientific) and NuPAGE LDS Sample buffer (Thermo Fisher Scientific), the supernatant was used for SDS-PAGE. SDS-PAGE was performed using a 5–12% polyacrylamide gel (FUJIFILM Wako) and NuPAGE MOPS SDS running buffer (Thermo Fisher Scientific) for 1 h, 120 V. One microgram of protein was loaded in each lane. […] After three washes with PBST, the secondary antibodies were detected using ImmunoStar (FUJIFILM Wako) and LAS 3000 (FUJIFILM). […]
For orientation: A western blot detects proteins with antibodies after separation by electrophoresis.

The subject of experiment [3] is PD-1-SD. Description: Exogenous PD-1-SD degradation in mESCs. It is filed as cell-based, mouse. The method, then:
as §1, §2

The target of experiment [4] is EGFP-SD (Aequorea victoria, UniProt P42212, F64L/H231L/S65T). Type of experiment: cell-based, mouse. The following applies: stable; for DC50: read-out: DC50, EGFP-SD.
Experiment [5] concerns the target EGFP-IKZF (UniProt P42212+Q8C7D2, F64L/H231L/INS1V/S65T). It is filed as cell-based, mouse. The following applies: read-out: DC50, EGFP-IKZF, stable.
The test system of experiment [6] is mouse PD-1-mCherry-super degron (SD) tag. Description: Degradation of SD-tagged mouse PD-1-mCherry in Jurkat cells, flow cytometry 24 h. It is filed as cell-based, human. Conditions: for Bottom, mCherry (mC): no reagent = 1; for Bottom, PD-1 (FITC): surface PD-1, no reagent = 1. An excerpt: To identify a tag that could efficiently knock down mouse PD-1, we connected various degron tags to the C-terminus of PD-1, including IKZF1/3, Sall4, ZFP91, and SD, and generated Jurkat human T cell lymphoma cell lines that stably expressed the mouse PD-1-degron tag (Figure 1A). […] Therefore, a human cell line was used because it was thought that mouse CRBN would not degrade SD by thalidomide analogs. […] We also analyzed the degradation of total proteins using mCherry.
(C and D) The amount was standardized with the sample to which no reagent was added as 1. Concentrations of reagents were 0 (−), 5, 10, and 20 μM for IKZF minimal, IKZF full-length, and Sall4 tags and 0 (−), 0.5, 5 μM for SD tag. The dots indicate the results of the experiment for each of samples.

Setting [7] is: Pdcd1SD/SD/CrbnI391V/I391V T cells.
Where [8] appears, read: CrbnI391V/I391V mESCs, Figure 5E.

EGFP-IKZF, sequence (Q8C7D2 whole entry, looked up, stated change not applied, other chains not shown): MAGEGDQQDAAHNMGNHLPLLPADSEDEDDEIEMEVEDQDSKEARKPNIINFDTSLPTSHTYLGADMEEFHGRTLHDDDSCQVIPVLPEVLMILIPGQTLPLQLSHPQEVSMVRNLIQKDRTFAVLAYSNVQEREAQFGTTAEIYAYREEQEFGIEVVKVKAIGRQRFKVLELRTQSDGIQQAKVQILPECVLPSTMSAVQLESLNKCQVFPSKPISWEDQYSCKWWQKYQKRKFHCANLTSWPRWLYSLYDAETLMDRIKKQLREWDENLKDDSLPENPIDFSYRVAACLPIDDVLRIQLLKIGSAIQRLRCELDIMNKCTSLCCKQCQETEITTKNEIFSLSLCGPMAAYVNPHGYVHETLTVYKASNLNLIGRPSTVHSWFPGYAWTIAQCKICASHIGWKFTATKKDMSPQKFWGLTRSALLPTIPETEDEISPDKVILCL
endogenous PD-1 tagged with SD, sequence (Q02242 with tags, fused parts or gaps): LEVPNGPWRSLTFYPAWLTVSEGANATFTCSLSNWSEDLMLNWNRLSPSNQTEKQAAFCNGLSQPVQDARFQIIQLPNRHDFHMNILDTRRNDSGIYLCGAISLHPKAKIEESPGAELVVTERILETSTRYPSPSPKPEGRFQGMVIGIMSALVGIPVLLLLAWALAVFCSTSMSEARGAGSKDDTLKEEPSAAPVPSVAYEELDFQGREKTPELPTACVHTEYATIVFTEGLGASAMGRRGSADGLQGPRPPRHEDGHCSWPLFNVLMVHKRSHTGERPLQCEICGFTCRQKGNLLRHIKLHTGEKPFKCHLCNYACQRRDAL
endogenous PD-1 tagged with SD, sequence (Q8C7D2 whole entry): as the sequence (Q8C7D2 whole entry, looked up, stated change not applied, other chains not shown) above
endogenous PD-1 tagged with SD, sequence (Q3U1J4 whole entry partner): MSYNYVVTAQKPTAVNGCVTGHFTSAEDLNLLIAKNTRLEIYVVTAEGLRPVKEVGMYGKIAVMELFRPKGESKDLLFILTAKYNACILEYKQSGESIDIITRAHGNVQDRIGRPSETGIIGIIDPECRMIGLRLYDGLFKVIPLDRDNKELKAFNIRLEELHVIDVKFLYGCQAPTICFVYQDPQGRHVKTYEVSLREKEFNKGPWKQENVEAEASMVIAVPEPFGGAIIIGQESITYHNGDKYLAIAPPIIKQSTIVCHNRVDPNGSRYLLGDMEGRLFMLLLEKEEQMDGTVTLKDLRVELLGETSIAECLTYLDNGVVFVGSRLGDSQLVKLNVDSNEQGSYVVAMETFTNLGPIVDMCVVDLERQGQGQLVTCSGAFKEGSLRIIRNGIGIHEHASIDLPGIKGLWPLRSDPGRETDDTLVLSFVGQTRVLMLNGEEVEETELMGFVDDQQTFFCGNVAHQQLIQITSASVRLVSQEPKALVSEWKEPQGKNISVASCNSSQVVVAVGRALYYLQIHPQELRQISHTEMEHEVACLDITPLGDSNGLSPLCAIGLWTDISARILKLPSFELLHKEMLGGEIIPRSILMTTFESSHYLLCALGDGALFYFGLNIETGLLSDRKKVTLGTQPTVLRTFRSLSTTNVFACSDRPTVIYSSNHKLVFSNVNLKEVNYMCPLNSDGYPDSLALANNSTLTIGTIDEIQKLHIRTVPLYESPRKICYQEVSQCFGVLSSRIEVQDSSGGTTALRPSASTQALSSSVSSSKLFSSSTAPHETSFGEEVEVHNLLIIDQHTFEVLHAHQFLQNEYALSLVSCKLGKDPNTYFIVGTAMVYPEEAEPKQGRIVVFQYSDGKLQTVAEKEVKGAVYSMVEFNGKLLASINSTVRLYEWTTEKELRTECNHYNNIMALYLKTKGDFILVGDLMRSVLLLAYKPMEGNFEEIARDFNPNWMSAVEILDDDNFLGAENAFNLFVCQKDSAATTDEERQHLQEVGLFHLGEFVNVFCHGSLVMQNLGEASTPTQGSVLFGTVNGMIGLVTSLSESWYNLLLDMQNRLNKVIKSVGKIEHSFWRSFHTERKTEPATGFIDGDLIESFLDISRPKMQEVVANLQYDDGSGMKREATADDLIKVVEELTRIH
PD-1 tagged with SD in the brain, sequence (Q02242 with tags, fused parts or gaps): as the sequence (Q02242 with tags, fused parts or gaps) above
PD-1 tagged with SD in the brain, sequence (Q8C7D2 whole entry): as the sequence (Q8C7D2 whole entry, looked up, stated change not applied, other chains not shown) above
PD-1 tagged with SD in the brain, sequence (Q3U1J4 whole entry partner): as the sequence (Q3U1J4 whole entry partner) above

Regarding `O=C1CC[C@H](N2Cc3c(OCc4ccc(CN5CCOCC5)cc4)cccc3C2=O)C(=O)N1` [IBR, iberdomide], the “percentage of activated T cells characterized by FSC high” value in experiment [1] is “not affected”. Moreover, the PD-1 degradation entry is “barely degraded” in experiment [1] (Pdcd1SD/SD/Crbn+/+ T cells), “barely degraded” in experiment [3] (Crbn+/+ mESCs transfected with PD-1-SD) and “degraded” in experiment [3] (CrbnI391V/I391V mESCs transfected with PD-1-SD). Besides, the PD-1 removal entry in experiment [1] (Pdcd1SD/SD/CrbnI391V/I391V T cells, 10^−2 μM and 10^−3 μM IBR) is given as “mostly removed”. Also, in experiment [1] (setting [7]), the “PD-1 on CD8+ and CD4+ cells” value is on record as “barely observed”. For the same molecule, in experiment [2] (IBR 10 mg/kg oral, 24 h), the “PD-1 expression in the brain” value is recorded as “no changes in PD-1 expression in the brain”. The “Bottom, EGFP-SD” value in experiment [4] (B6J-S1 mESCs, Figure 5B) was 0.05422; in experiment [4] (B6J-S1 mESCs, Figure 5D), 0.02363; in experiment [4] (setting [8]) it was 0.04851. Besides, the “LogDC50, EGFP-SD” value is recorded as -3.152 μM in experiment [4] (B6J-S1 mESCs, Figure 5B); -3.579 μM in experiment [4] (B6J-S1 mESCs, Figure 5D); -4.174 μM in experiment [4] (setting [8]). For the same molecule, the DC50 in experiment [4] (B6J-S1 mESCs, Figure 5B) amounted to 0.704 nM; in experiment [4] (B6J-S1 mESCs, Figure 5D) it was 0.264 nM; in experiment [4] (setting [8]), 0.067 nM; in experiment [5] (B6J-S1 mESCs, Figure 5B) it was 29.1 nM; in experiment [5] (setting [8]), 0.639 nM. Also, the “concentration showing the same effect on PD-1-SD” value in experiment [6] is 0.5 µM. Also, in experiment [6], the “Bottom, mCherry (mC)” value turned out to be 0.2415. In experiment [6], the “Bottom, PD-1 (FITC)” value was 0.1258.

Take `Nc1cccc2c1C(=O)N(C1CCC(=O)NC1=O)C2=O` (stereo not drawn) [POM, pomalidomide]: in experiment [1], the “percentage of activated T cells characterized by FSC high” value is on record as “not affected”. Besides, the “PD-1 on CD8+ and CD4+ cells” value in experiment [1] (setting [7]) is on record as “barely observed”. Moreover, the “PD-1 amount in the brain vs vehicle” value in experiment [2] (20 mg/kg POM oral, after 24 h) is listed as “reduced to half the amount”. Further, in experiment [4] (B6J-S1 mESCs, Figure 5D), the “Bottom, EGFP-SD” value is 0.01974; the “LogDC50, EGFP-SD” value is -2.853 μM; the DC50 is 1.4 nM. Moreover, in experiment [4] (setting [8]), the “Bottom, EGFP-SD” value turned out to be 0.06229; the “LogDC50, EGFP-SD” value is given as -2.993 μM; the DC50 came to 1.02 nM. Also, in experiment [5] (setting [8]), the DC50 came to 5.11 nM. Further, in experiment [6], the “concentration showing the same effect on PD-1-SD” value is 5 µM; the “Bottom, mCherry (mC)” value is 0.2421; the “Bottom, PD-1 (FITC)” value is 0.11 and 0.1083. Moreover, in experiment [6] (read-out: DC50, PD-1 (FITC), surface PD-1), the DC50 came out at 148 nM. The DC50 in experiment [6] (read-out: DC50, mCherry (mC), mCherry) is 234 nM.
